From the supplement of paper PMC10883282

Columns and labels:
Test in all cases: relative viability vs DMSO control (72 h) (fraction); higher = more viable cells
[1] = tested on: RD-ES
Procedure, shortened: (§1)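 Sarcoma cell lines were grown in 384-well plates seeded toward 80–90% confluence and exposed 24 h later to serially diluted compound. After 72 h at 37 °C and 5% CO2, with 0.1% DMSO vehicle and a 5 µM positive control on the plates, ATPLite was read. Relative viability, given as percent growth averaged over up to triplicate wells, was rescaled so that 1 is full and 0 is none.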

[2] = tested on: SYO-1
Procedure, shortened: as §1

[3] = tested on: SK-ES-1
Procedure, shortened: as §1

[4] = tested on: G401
Procedure, shortened: as §1

[5] = tested on: VA-ES-BJ
Procedure, shortened: as §1

[6] = tested on: KHOS-240S
Procedure, shortened: as §1

[7] = tested on: HT1080
Procedure, shortened: as §1

[8] = tested on: RD
Procedure, shortened: as §1

[9] = tested on: SW982
Procedure, shortened: as §1

[10] = tested on: SW1353
Procedure, shortened: as §1

[11] = tested on: SK-LMS-1
Procedure, shortened: as §1

[12] = tested on: MES-SA
Procedure, shortened: as §1

COc1cc(Nc2c(C#N)cnc3cc(OCCCN4CCN(C)CC4)c(OC)cc23)c(Cl)cc1Cl [Bosutinib]
Conditions | relative viability
[1], 0.00017 µM | 0.965
[1], 0.00051 µM | 0.981
[1], 0.00152 µM | 0.987
[1], 0.00457 µM | 0.972
[1], 0.01372 µM | 0.98
[1], 0.04115 µM | 0.974
[1], 0.1235 µM | 0.941
[1], 0.3704 µM | 0.906
[1], 1.111 µM | 0.715
[1], 3.333 µM | 0.472
[1], 10 µM | 0.0125
[2], 0.00017 µM | 1.04
[2], 0.00051 µM | 1.03
[2], 0.00152 µM | 1.02
[2], 0.00457 µM | 1.04
[2], 0.01372 µM | 1.01
[2], 0.04115 µM | 0.989
[2], 0.1235 µM | 0.966
[2], 0.3704 µM | 0.966
[2], 1.111 µM | 0.868
[2], 3.333 µM | 0.641
[2], 10 µM | -0.0056
[3], 0.00017 µM | 1.05
[3], 0.00051 µM | 1.06
[3], 0.00152 µM | 1.06
[3], 0.00457 µM | 1.07
[3], 0.01372 µM | 1
[3], 0.04115 µM | 1.02
[3], 0.1235 µM | 0.935
[3], 0.3704 µM | 0.732
[3], 1.111 µM | 0.482
[3], 3.333 µM | 0.303
[3], 10 µM | 0.136
[4], 0.00017 µM | 1.09
[4], 0.00051 µM | 1.09
[4], 0.00152 µM | 1.08
[4], 0.00457 µM | 1.06
[4], 0.01372 µM | 1.09
[4], 0.04115 µM | 1.09
[4], 0.1235 µM | 1.08
[4], 0.3704 µM | 1.08
[4], 1.111 µM | 1.03
[4], 3.333 µM | 0.909
[4], 10 µM | 0.0203
[5], 0.00017 µM | 1.11
[5], 0.00051 µM | 1.14
[5], 0.00152 µM | 1.12
[5], 0.00457 µM | 1.12
[5], 0.01372 µM | 1.14
[5], 0.04115 µM | 1.16
[5], 0.1235 µM | 1.14
[5], 0.3704 µM | 1.03
[5], 1.111 µM | 0.729
[5], 3.333 µM | 0.545
[5], 10 µM | 0.0514
[6], 0.00017 µM | 1.07
[6], 0.00051 µM | 1.08
[6], 0.00152 µM | 1.08
[6], 0.00457 µM | 1.1
[6], 0.01372 µM | 1.08
[6], 0.04115 µM | 1.06
[6], 0.1235 µM | 1.04
[6], 0.3704 µM | 0.962
[6], 1.111 µM | 0.734
[6], 3.333 µM | 0.49
[6], 10 µM | 0.0326
[7], 0.00017 µM | 1.14
[7], 0.00051 µM | 1.14
[7], 0.00152 µM | 1.09
[7], 0.00457 µM | 1.14
[7], 0.01372 µM | 1.11
[7], 0.04115 µM | 1.16
[7], 0.1235 µM | 1.14
[7], 0.3704 µM | 1.14
[7], 1.111 µM | 1.05
[7], 3.333 µM | 0.775
[7], 10 µM | 0.0548
[8], 0.00017 µM | 1.11
[8], 0.00051 µM | 1.11
[8], 0.00152 µM | 1.12
[8], 0.00457 µM | 1.11
[8], 0.01372 µM | 1.11
[8], 0.04115 µM | 1.14
[8], 0.1235 µM | 1.15
[8], 0.3704 µM | 1.12
[8], 1.111 µM | 0.88
[8], 3.333 µM | 0.665
[8], 10 µM | 0.0202
[9], 0.00017 µM | 1.05
[9], 0.00051 µM | 1.08
[9], 0.00152 µM | 1.08
[9], 0.00457 µM | 1.08
[9], 0.01372 µM | 1.09
[9], 0.04115 µM | 1.08
[9], 0.1235 µM | 1.05
[9], 0.3704 µM | 0.816
[9], 1.111 µM | 0.511
[9], 3.333 µM | 0.359
[9], 10 µM | 0.0126
[10], 0.00017 µM | 1.11
[10], 0.00051 µM | 1.11
[10], 0.00152 µM | 1.12
[10], 0.00457 µM | 1.09
[10], 0.01372 µM | 1.1
[10], 0.04115 µM | 1.13
[10], 0.1235 µM | 1.09
[10], 0.3704 µM | 1.04
[10], 1.111 µM | 0.896
[10], 3.333 µM | 0.673
[10], 10 µM | 0.0287
[11], 0.00017 µM | 1.06
[11], 0.00051 µM | 1.07
[11], 0.00152 µM | 1.08
[11], 0.00457 µM | 1.07
[11], 0.01372 µM | 1.1
[11], 0.04115 µM | 1.16
[11], 0.1235 µM | 1.22
[11], 0.3704 µM | 1.24
[11], 1.111 µM | 1.1
[11], 3.333 µM | 0.873
[11], 10 µM | 0.0696
[12], 0.00017 µM | 1.018
[12], 0.00051 µM | 0.992
[12], 0.00152 µM | 1.01
[12], 0.00457 µM | 0.979
[12], 0.01372 µM | 0.989
[12], 0.04115 µM | 0.993
[12], 0.1235 µM | 0.994
[12], 0.3704 µM | 0.926
[12], 1.111 µM | 0.675
[12], 3.333 µM | 0.432
[12], 10 µM | 0.228

COc1cc2nccc(Oc3ccc(NC(=O)C4(C(=O)Nc5ccc(F)cc5)CC4)cc3)c2cc1OC [Cabozantinib]
Conditions | relative viability
[1], 0.00017 µM | 0.916
[1], 0.00051 µM | 0.92
[1], 0.00152 µM | 0.953
[1], 0.00457 µM | 0.95
[1], 0.01372 µM | 0.938
[1], 0.04115 µM | 0.949
[1], 0.1235 µM | 0.958
[1], 0.3704 µM | 0.895
[1], 1.111 µM | 0.857
[1], 3.333 µM | 0.616
[1], 10 µM | 0.252
[2], 0.00017 µM | 1
[2], 0.00051 µM | 1
[2], 0.00152 µM | 0.974
[2], 0.00457 µM | 0.91
[2], 0.01372 µM | 0.915
[2], 0.04115 µM | 0.751
[2], 0.1235 µM | 0.708
[2], 0.3704 µM | 0.627
[2], 1.111 µM | 0.451
[2], 3.333 µM | 0.322
[2], 10 µM | 0.129
[3], 0.00017 µM | 1.01
[3], 0.00051 µM | 1.05
[3], 0.00152 µM | 1.03
[3], 0.00457 µM | 0.986
[3], 0.01372 µM | 1.04
[3], 0.04115 µM | 0.992
[3], 0.1235 µM | 1
[3], 0.3704 µM | 0.941
[3], 1.111 µM | 0.885
[3], 3.333 µM | 0.514
[3], 10 µM | 0.128
[4], 0.00017 µM | 1.08
[4], 0.00051 µM | 1.05
[4], 0.00152 µM | 1.02
[4], 0.00457 µM | 1.06
[4], 0.01372 µM | 1.05
[4], 0.04115 µM | 0.997
[4], 0.1235 µM | 0.969
[4], 0.3704 µM | 0.858
[4], 1.111 µM | 0.804
[4], 3.333 µM | 0.514
[4], 10 µM | 0.215
[5], 0.00017 µM | 1.07
[5], 0.00051 µM | 1.06
[5], 0.00152 µM | 1.04
[5], 0.00457 µM | 1
[5], 0.01372 µM | 1.04
[5], 0.04115 µM | 1.03
[5], 0.1235 µM | 0.9802
[5], 0.3704 µM | 0.971
[5], 1.111 µM | 0.91
[5], 3.333 µM | 0.68
[5], 10 µM | 0.266
[6], 0.00017 µM | 1.11
[6], 0.00051 µM | 1.08
[6], 0.00152 µM | 1.08
[6], 0.00457 µM | 1.06
[6], 0.01372 µM | 1.06
[6], 0.04115 µM | 1.07
[6], 0.1235 µM | 1.02
[6], 0.3704 µM | 1.04
[6], 1.111 µM | 0.974
[6], 3.333 µM | 0.6869
[6], 10 µM | 0.425
[7], 0.00017 µM | 1.06
[7], 0.00051 µM | 1.06
[7], 0.00152 µM | 1.07
[7], 0.00457 µM | 1.07
[7], 0.01372 µM | 1.05
[7], 0.04115 µM | 1.04
[7], 0.1235 µM | 1.06
[7], 0.3704 µM | 1.06
[7], 1.111 µM | 1.07
[7], 3.333 µM | 0.962
[7], 10 µM | 0.482
[8], 0.00017 µM | 1.073
[8], 0.00051 µM | 1.09
[8], 0.00152 µM | 1.09
[8], 0.00457 µM | 1.12
[8], 0.01372 µM | 1.11
[8], 0.04115 µM | 1.12
[8], 0.1235 µM | 1.13
[8], 0.3704 µM | 1.11
[8], 1.111 µM | 1.13
[8], 3.333 µM | 0.864
[8], 10 µM | 0.501
[9], 0.00017 µM | 1.04
[9], 0.00051 µM | 1.01
[9], 0.00152 µM | 1.03
[9], 0.00457 µM | 1.035
[9], 0.01372 µM | 1.036
[9], 0.04115 µM | 1.07
[9], 0.1235 µM | 1.05
[9], 0.3704 µM | 1.03
[9], 1.111 µM | 0.993
[9], 3.333 µM | 0.598
[9], 10 µM | 0.259
[10], 0.00017 µM | 1.05
[10], 0.00051 µM | 1.02
[10], 0.00152 µM | 1.04
[10], 0.00457 µM | 0.987
[10], 0.01372 µM | 1.01
[10], 0.04115 µM | 1.01
[10], 0.1235 µM | 0.904
[10], 0.3704 µM | 0.8127
[10], 1.111 µM | 0.783
[10], 3.333 µM | 0.54
[10], 10 µM | 0.317
[11], 0.00017 µM | 1.13
[11], 0.00051 µM | 1.13
[11], 0.00152 µM | 1.133
[11], 0.00457 µM | 1.13
[11], 0.01372 µM | 1.09
[11], 0.04115 µM | 0.982
[11], 0.1235 µM | 0.599
[11], 0.3704 µM | 0.379
[11], 1.111 µM | 0.339
[11], 3.333 µM | 0.205
[11], 10 µM | 0.11
[12], 0.00017 µM | 0.994
[12], 0.00051 µM | 0.953
[12], 0.00152 µM | 0.947
[12], 0.00457 µM | 0.948
[12], 0.01372 µM | 0.934
[12], 0.04115 µM | 0.929
[12], 0.1235 µM | 0.912
[12], 0.3704 µM | 0.89
[12], 1.111 µM | 0.807
[12], 3.333 µM | 0.262
[12], 10 µM | 0.163
